Source: patent US8748097B1, “Identification of agents for treating calcium disorders and uses thereof” (President and Fellows of Harvard College, priority 2011, dated 2014)
Where two headings read alike, the source gives them in different places. Values belong to the molecule of their own block, whether it stands above or below them.

Legend:
[1] = tested on: HEK-293T; conditions: HEK-293T with C2orf28 depletion using RNAi; data not shown
[2] = tested on: HDJ-2 prenylation; conditions: indicated dose of Alendronate, 72 hours
Procedure: (§1) FIG. 8. Effect of Nitrogenous Bisphosphonates on Prenylation. Cells containing (WT) or lacking C2orf28 (C2orf28_GT2) were treated with Alendronate at the indicated dose ((−) indicates no Alendronate). After 72 hours the cells were analyzed by immunoblotting for the indicated proteins.
(§2) Therefore, to determine whether C2orf28 is involved with NBPs mediated protein prenylation, the inventors' monitored the prenylation of several known prenylated proteins including the heat shock protein DnaJ (Hsp40) homolog, HDJ-2, and the Ras family GTPase, Rapla. Cells containing or lacking C2orf28 were treated with the indicated dose of Alendronate for 72 hours then lysed and analyzed by immunoblotting for the indicated proteins.
(§3) Cells were pelleted by centrifugation at 9,000 rpm for 30 seconds, rinsed once with ice-cold PBS and lysed with Triton-X 100 containing lysis buffer (40 mM HEPES [pH 7.4], 2 mM EDTA, 150 mM NaCl, 50 mM NaF, 1% Triton-X 100, and one tablet of EDTA-free protease inhibitors [Roche] per 25 ml). The soluble fractions of cell lysates were isolated by centrifugation at 13,000 rpm for 10 minutes in a microcentrifuge. Lysate protein concentrations were normalized by Bradford assay (Bio-Rad). Proteins were then denatured by the addition of sample buffer and by boiling for 5 minutes, resolved using 4%-20% SDS-PAGE (Invitrogen), and analyzed by immunoblotting.

[3] = tested on: Rapla prenylation; conditions: indicated dose of Alendronate, 72 hours
Procedure: as §1, §2, §3

[4] = tested on: cells containing or lacking C2orf28; conditions: C2orf28 deficient vs C2orf28-complemented cells; 75 μM fluorophore conjugated H^3-labeled Alendronate plus 60 μM cold, 60 hours
Procedure: The volume was made up to 1 ml with distilled water and the solution incubated for 2 hours at room temperature with mixing.

[5] = tested on: KBM7 cells
Procedure: (§4) All measurements were performed in quadruplicate.
as §4

[6] = biological target: HA tagged C2orf28 variant 2 (Homo sapiens, UniProt Q6UW56); conditions: MC3T3-E1 pre-osteoblasts expressing HA tagged C2orf28 variant 2; 7504 fluorophore conjugated Alendronate
Procedure: Sub-cellular Localization. […] Cells were processed in an immunofluorescence assay.
Following incubation, the cells were washed, and processed in an immunofluorescence assay to detect HA and Alendronate, along with DAPI to visualize DNA content.
25,000-100,000 cells were plated on fibronectin-coated glass coverslips, fixed with 4% paraformaldehyde, and permeabilized with 0.2% Triton X-100. Permeabilized cells were blocked in 0.25% BSA PBS, incubated with primary antibody in blocking buffer overnight at 4° C. and subsequently incubated with secondary antibodies (diluted in blocking buffer 1:1000) for one hour at room temperature. 2-4×PBS washes were used in between all preceding steps. The coverslips were mounted on glass slides using Vectashield containing DAPI (Vector Laboratories) and imaged with 63× objective using epifluorescence microscopy.

[7] = tested on: MC3T3-e1 cells
Procedure: FIG. 15. Basal and NBP-potentiated osteoblastic gene expression. shNA-mediated TBONE knockdown (TBONE—1 and TBONE—2) and transfection control (GFP) cells were treated with 10 nM Alendronte or vehicle and analyzed using real-time RT-PCR for mRNA expression of (A) TBONE, (B) osteocalcin (OC), and (C) bone sialoprotein (BSP).
Since NBPs and calcium potentially play an important role in regulating osteoblast function, studies were performed to evaluate the role of TBONE in osteoblast differentiation. For the experiment, wild-type and GFP positive MC3T3-e1 cells were transiently transfected with small-hairpin RNA (shRNA). GFP positive cells were treated with a shRNA designed to target and disrupt GFP expression (transfection control), while wild-type cells were treated with one of two shRNA constructs (TBONE—1 and TBONE—2) designed to target and disrupt expression of Apr3. The cells were then subjected to conditions for promoting osteoblast differentiation, 50 μg/ml ascorbic acid and 10 mM B-glycerophosphate for 2 weeks, and analyzed for extracellular calcium deposition using Alizarin Red or phosphate deposition using the Von Kossa method.
(§5) Briefly, GFP control and TBONE knockdown cells were generated and subjected to differentiation as described above. Following the two week incubation, cells were treated with 10 nM Alendronate (exemplary NBP) or vehicle and analyzed by real-time RT-PCR using TBONE, OC and BSP gene specific oligonucleotide primers (FIG. 15). Alkaline phosphatase activity was measured using a colorimetric based assay designed to indicate ALPL activity by changing color following the dephosphorylation of p-nitrophenyl phosphate (pNPP) (FIG. 16).

[8] = tested on: alkaline phosphatase (ALPL); conditions: TBONE deficient cells vs GFP control; 10 nM Alendronate
Procedure: as §5

[9] = tested on: RAW 264.7 macrophages
Procedure: (§6) GFP positive cells were treated with a shRNA designed to target and disrupt GFP expression (transfection control), while wild-type cells were treated with one of two shRNA constructs (TBONE—1 and TBONE—2) designed to target and disrupt expression of Apr3.

[10] = tested on: RANKL mRNA in ST-2 osteoblast cells
Procedure: as §6

[11] = tested on: NFATc1 mRNA; experiment: A23187-induced NFATc1 expression; format: cell-based; conditions: C2orf28 deficient cells vs control; 1 μM A23187, 12 hours
Procedure: FIG. 13. A23187-induced NFATc1 Expression. Control and C2orf28 deficient cells were treated for 12 hours with 1 μM A23187. After 12 hours, relative levels of NFATc1 mRNA expression were measured.
Total RNA was isolated and reverse-transcription was performed from cells grown in the indicated conditions. The resulting cDNA was diluted in DNase-free water (1:20) followed by quantification by real-time PCR. Data is expressed as the ratio between the expression of the target gene to the housekeeping gene, 18s. Each treated sample was normalized to the level of the vehicle controls of the same cell type. The following primers were used for quantitative real-time PCR: […]

[12] = tested on: RAW 264.7 macrophages; experiment: RANKL-mediated induction of TRAP activity in RAW 264.7 macrophages; format: cell-based; conditions: TBONE knockdown RAW 264.7 macrophages; 50 ng/ml RANKL, 5 days
Text: In order to determine if TBONE plays a role in directly regulating osteoclastogensis, TBONE was knockdown in macrophages to evaluate its potential effect on RANKL stimulated differentiation; by monitoring lineage specific surface marker expression of the calcitonin receptor (CALCR), a well-established indicator of osteoclast activity (J. Lam et al., (2000) J Clin Invest: 106, 1481; D. L. Lacey et al., (1998), Cell: 93, 165; and C. Minkin, (1982), Calcif Tissue Int: 34, 285; all of which are hereby incorporated by reference). Briefly, wild-type and GFP positive RAW 264.7 macrophages cells were transiently transfected with shRNA to knockdown GFP and Arp3 as described above. The cells were treated with 50 ng/ml RANKL for 5 days. […] Second, cells were analyzed for tartrate-resistant acid phosphatase (TRAP) activity.

[13] = C2orf28 deficient cells (C2orf28_GT2)
[14] = TBONE deficient cells vs GFP control, 10 nM Alendronate

HA tagged C2orf28 variant 2, sequence (Q6UW56 1-284 isoform Q6UW56-3): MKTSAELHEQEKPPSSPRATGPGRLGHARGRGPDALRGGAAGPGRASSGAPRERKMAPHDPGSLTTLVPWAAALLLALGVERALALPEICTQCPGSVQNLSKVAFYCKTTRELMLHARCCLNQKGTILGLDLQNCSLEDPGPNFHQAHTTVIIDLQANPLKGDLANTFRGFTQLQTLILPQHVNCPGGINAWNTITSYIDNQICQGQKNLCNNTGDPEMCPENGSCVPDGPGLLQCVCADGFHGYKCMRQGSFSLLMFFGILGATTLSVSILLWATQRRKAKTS

Colocalization of Alendronate and C2orf28 co-staining [6]: high degree of colocalization
Molecule: NCCCC(O)(P(=O)(O)O)P(=O)(O)O [Alendronate]
Anti-proliferative effects [1]: strong resistance
HDJ-2 prenylation [2, 13]: no effect
HDJ-2 prenylation ([2]; cells containing C2orf28 (WT)): impaired both HDJ-2 and Rapla prenylation in a dose dependent manner
Rapla prenylation [3, 13]: no effect
Rapla prenylation ([3]; cells containing C2orf28 (WT)): impaired both HDJ-2 and Rapla prenylation in a dose dependent manner
Cellular Alendronate accumulation [4]: altered cellular Alendronate accumulation
Cell viability (cellular ATP, ratio to untreated cells) ([5]; C2orf28_GT2 cells expressing C2orf28 variant 2 lacking the transmembrane domain, 0, 60 or 9004, 72 hours): resistant
Cell viability (cellular ATP, ratio to untreated cells) ([5]; C2orf28_GT2 cells expressing full-length C2orf28 variant 2, 0, 60 or 9004, 72 hours): sensitive
Cell viability (cellular ATP, ratio to untreated cells) ([5]; C2orf28 mutant cells with exogenous C2orf28 variant 2 or variant 3, 60 μM, 72 hours): as sensitive to Alendronate as wild-type KBM7 cells
Relative TBONE mRNA expression ([7]; GFP control cells, 10 nM Alendronate vs vehicle): increase in relative TBONE expression
NBP-stimulated gene expression of bone sialoprotein (BSP) [7, 14]: fail to demonstrate an increase in basal or NBP-stimulated gene expression
NBP-stimulated gene expression of osteocalcin (OC) [7, 14]: fail to demonstrate an increase in basal or NBP-stimulated gene expression
NBP-stimulated induction of TBONE mRNA ([7]; TBONE knockdown cells (TBONE—1 and TBONE—2), 10 nM Alendronate): fail to demonstrate a NBP-stimulated induction of TBONE
NBP-stimulated ALPL (alkaline phosphatase activity) [8]: fail to demonstrate an increase in basal or NBP-stimulated gene expression
Vitamin D stimulated osteoclastogenesis (TRAP activity) ([9]; ST-2 cells treated with 100 nM Vitamin D and Alendronate, co-cultured with RAW 264.7 macrophages): reduced TRAP activity
RANKL mRNA induction by Vitamin D ([10]; wild-type ST-2 cells, 100 nM Vitamin D plus increasing concentration of Alendronate, vs control): impaired RANKL mRNA induction by Vitamin D, in a dose dependent fashion

Molecule: CNc1ccc2oc(C[C@H]3O[C@@]4(CC[C@H]3C)O[C@H]([C@H](C)C(=O)c3ccc[nH]3)[C@H](C)C[C@H]4C)nc2c1C(=O)O [A23187]
A23187-induced NFATc1 gene expression [11]: defective

Molecule: Vitamin D
Vitamin D stimulated osteoclastogenesis (TRAP activity) ([9]; TBONE knockdown ST-2 cells co-cultured with RAW 264.7 macrophages, 100 nM Vitamin D): largely blocked
RANKL mRNA induction by Vitamin D ([10]; TBONE knockdown ST-2 cells (TBONE—1 and TBONE—2) vs GFP control, 100 nM Vitamin D): impaired RANKL mRNA induction

B1: RANKL: regulatory molecule stimulating osteoclast differentiation and function (protein, UniProt O14788 140-317, looked up)
Tumor necrosis factor ligand …: IRAEKAMVDGSWLDLAKRSKLEAQPFAHLTINATDIPSGSHKVSLSSWYHDRGWAKISNMTFSNGKLIVNQDGFYYLYANICFRHHETSGDLATEYLQLMVYVTKTSIKIPSSHTLMKGGSTKYWSGNSEFHFYSINVGGFFKLRSGEEISIEVSNPSLLDPDQDATYFGAFKVRDID
RANKL-mediated TRAP activity [12]: strongly impairs
